The source of these data is US20050169978A1, “Wet-micro grinding” (priority 2004, published 2005).

Molecules are shown by their SMILES.

The nature of the data set: AmB content by high performance liquid chromatography during grinding. The data set is classed as physicochemical. As to conditions: ball mill, 210 min overall grinding, HPLC.

Method: Samples were taken at a grinding time of 90 minutes, 150 minutes, and 210 minutes, and were designated as LDAB90, LDAB150, and LDAB210, respectively. All samples were stored at 2-8° C. before analyzed. The particle size ranges of the samples were measured using N4 Plus Particle Size Analyzer and the AmB content was measured using high performance liquid chromatography.

With `C[C@@H]1[C@H](O)[C@@H](C)/C=C/C=C/C=C/C=C/C=C/C=C/C=C/[C@H](O[C@@H]2O[C@H](C)[C@@H](O)[C@H](N)[C@@H]2O)C[C@@H]2O[C@](O)(C[C@@H](O)C[C@@H](O)[C@H](O)CC[C@@H](O)C[C@@H](O)CC(=O)O[C@H]1C)C[C@H](O)[C@H]2C(=O)O` [AmB, amphotericin B], the “stability of AmB (AmB content) during grinding” value was “remained stable during the whole period of the grinding process”.
